2 compounds from PMC9095466 (Nature, 2022) can be followed below.

SMILES strings stand for the structures. Where “and” joins values, the source holds several entries; their conditions need not be identical. Identical values can stand only once.

Holding throughout (format): biochemical
Assay [1] deals with T1, human cathepsin L (Homo sapiens, UniProt P07711).
T1 construct: purchased Bio-Techne
The experiment in a line: Protease selectivity, Ki on protease. The note with it: single experiments N1-N4; Figure 1D; read-out: Individual Ki, Cathepsin L.

Assay [2] deals with T2, Recombinant human hepsin (Homo sapiens, UniProt P05981).
T2 construct: made in house
The experiment in a line: Protease selectivity, Ki on recombinant protease. The following applies: single experiments N1-N3; Figure 1D; read-out: Individual Ki, Hepsin.

Assay [3] concerns the target T3, Recombinant human furin (Homo sapiens, UniProt P09958).
T3 construct: purchased Bio-Techne
Briefly: Protease selectivity, Ki on recombinant protease. The note with it: single experiments N1-N3; Figure 1D; read-out: Individual Ki, Furin.

In assay [4] the target is T4, Recombinant human matriptase (Homo sapiens, UniProt Q9Y5Y6).
T4 construct: made in house
T4 sequence (Q9Y5Y6 1-855): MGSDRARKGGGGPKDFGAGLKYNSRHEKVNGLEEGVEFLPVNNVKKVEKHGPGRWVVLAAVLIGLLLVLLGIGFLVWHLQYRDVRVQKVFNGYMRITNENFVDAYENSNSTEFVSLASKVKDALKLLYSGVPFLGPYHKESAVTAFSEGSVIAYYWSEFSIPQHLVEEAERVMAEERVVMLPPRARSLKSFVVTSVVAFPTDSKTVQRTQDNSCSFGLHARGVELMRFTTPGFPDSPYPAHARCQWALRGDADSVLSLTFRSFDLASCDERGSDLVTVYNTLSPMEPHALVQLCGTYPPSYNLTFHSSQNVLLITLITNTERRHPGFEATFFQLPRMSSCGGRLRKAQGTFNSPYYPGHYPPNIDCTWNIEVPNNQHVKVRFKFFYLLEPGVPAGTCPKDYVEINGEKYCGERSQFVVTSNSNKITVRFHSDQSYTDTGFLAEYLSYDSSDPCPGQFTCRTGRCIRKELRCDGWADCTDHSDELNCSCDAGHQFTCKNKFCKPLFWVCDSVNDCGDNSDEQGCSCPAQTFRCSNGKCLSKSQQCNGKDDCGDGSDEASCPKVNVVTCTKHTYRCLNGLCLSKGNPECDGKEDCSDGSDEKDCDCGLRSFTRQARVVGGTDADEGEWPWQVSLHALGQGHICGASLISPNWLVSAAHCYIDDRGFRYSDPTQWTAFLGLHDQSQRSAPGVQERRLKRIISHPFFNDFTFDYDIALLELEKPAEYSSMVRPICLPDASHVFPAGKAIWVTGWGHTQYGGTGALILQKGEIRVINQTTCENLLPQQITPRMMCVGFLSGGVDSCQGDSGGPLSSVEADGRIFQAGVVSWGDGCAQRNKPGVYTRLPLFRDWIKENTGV
The experiment in a line: Protease selectivity, Ki on recombinant protease. The following applies: single experiments N1-N3; Figure 1D; read-out: Individual Ki, Matriptase.

The target in assay [5] is T5, human thrombin (Homo sapiens, UniProt P00734).
T5 construct: purchased MilliporeSigma
The experiment in a line: Protease selectivity, Ki on protease. The note with it: single experiments N1-N3; Figure 1D; read-out: Individual Ki, Thrombin.

The target in assay [6] is T6, Recombinant human DESC1 (Homo sapiens, UniProt Q9UL52).
T6 construct: made in house
T6 sequence (Q9UL52 1-423): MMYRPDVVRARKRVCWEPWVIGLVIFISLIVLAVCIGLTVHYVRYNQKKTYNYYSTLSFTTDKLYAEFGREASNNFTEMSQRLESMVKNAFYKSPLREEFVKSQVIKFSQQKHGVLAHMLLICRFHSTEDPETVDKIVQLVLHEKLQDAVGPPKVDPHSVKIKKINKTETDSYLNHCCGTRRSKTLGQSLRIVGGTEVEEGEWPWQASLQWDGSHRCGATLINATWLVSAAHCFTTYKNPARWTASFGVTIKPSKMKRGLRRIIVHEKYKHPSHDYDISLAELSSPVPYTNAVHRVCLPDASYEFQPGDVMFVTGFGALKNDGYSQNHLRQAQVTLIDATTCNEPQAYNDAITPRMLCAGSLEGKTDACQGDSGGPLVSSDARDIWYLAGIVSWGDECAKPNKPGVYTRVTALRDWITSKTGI
The experiment in a line: Protease selectivity, Ki on recombinant protease. The following applies: single experiments N1-N3; Figure 1D; read-out: Individual Ki, Desc1.

T1 sequence (P07711 114-333): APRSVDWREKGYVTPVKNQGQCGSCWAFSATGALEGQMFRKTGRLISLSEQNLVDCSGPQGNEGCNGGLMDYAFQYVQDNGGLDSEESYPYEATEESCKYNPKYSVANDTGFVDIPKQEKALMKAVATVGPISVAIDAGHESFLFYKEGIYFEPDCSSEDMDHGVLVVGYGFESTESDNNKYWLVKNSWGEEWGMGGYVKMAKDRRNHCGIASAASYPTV
T3 sequence (P09958 108-794): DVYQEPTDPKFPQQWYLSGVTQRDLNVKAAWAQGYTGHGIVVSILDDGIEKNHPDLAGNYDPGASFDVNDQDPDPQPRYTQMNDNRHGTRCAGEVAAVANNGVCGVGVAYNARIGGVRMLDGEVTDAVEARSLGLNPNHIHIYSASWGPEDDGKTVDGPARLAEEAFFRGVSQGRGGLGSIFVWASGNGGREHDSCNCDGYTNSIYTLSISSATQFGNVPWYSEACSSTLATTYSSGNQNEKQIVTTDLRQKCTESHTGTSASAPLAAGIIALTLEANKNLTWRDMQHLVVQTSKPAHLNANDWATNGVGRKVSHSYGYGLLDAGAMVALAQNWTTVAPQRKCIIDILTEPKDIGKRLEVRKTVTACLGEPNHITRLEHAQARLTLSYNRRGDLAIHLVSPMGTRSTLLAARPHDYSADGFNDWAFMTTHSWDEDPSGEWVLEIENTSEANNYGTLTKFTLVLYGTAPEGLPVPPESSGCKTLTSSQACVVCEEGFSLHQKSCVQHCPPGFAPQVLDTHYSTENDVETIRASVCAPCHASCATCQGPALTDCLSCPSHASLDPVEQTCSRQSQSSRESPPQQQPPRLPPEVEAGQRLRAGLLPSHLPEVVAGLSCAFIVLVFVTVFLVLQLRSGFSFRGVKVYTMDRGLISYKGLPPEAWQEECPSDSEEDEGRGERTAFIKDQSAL
T2 sequence (P05981 whole entry): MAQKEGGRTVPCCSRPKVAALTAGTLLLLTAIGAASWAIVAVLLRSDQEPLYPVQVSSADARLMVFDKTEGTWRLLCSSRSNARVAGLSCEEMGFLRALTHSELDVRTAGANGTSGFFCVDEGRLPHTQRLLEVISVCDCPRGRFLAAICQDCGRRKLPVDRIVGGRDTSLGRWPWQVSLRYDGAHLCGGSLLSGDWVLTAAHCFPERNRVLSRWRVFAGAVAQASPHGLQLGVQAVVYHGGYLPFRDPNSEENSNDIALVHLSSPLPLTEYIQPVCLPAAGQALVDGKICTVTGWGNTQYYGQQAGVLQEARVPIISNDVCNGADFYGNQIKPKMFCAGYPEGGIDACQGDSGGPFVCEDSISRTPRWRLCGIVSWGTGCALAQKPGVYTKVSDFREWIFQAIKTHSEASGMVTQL

For `N=C(N)NCCCCC(=O)N[C@@H](CCC(N)=O)C(=O)N[C@@H](Cc1ccccc1)C(=O)N[C@@H](CCCNC(=N)N)C(=O)c1nc2ccccc2s1` [Compound N-00130], the inhibition constant (Ki) in assay [1] was over 10000 nM; in assay [2] it was 0.221 nM and 0.323 nM and 0.606 nM; in assay [3], over 10000 nM; in assay [4], 0.154 nM and 0.0954 nM and 0.153 nM; in assay [5], 7560 nM and > 10000 nM and 7140 nM; in assay [6], 16.4 nM and 37.9 nM and 30.4 nM.
In the case of `N=C(N)NCCCCC(=O)N[C@@H](CCC(=O)O)C(=O)N[C@@H](Cc1ccccc1)C(=O)N[C@@H](CCCNC(=N)N)C(=O)c1nc2ccccc2s1` [Compound N-00438], the Ki in assay [1] was over 10000 nM; in assay [2], 0.477 nM and 0.603 nM and 0.489 nM; in assay [3], over 10000 nM; in assay [4], 1.21 nM and 1.02 nM and 1.09 nM; in assay [5], over 10000 nM; in assay [6], 34.3 nM and 27.6 nM and 29.8 nM.
